Measured values reported in ChEMBL document CHEMBL4732190, “Identification of Potent and Long-Acting Single-Chain Peptide Mimetics of Human Relaxin-2 for Cardiovascular Diseases” (J Med Chem, 2021).
≈ marks a conversion by molar mass, not a printed value. *1 amine or outer side, *2 acyl side, *3 side chain or, on linkers, in order; H or OH if unused. Where a SMILES comes first, the peptide text is derived from it. [ ]: non-standard residue; d: D form. The star is where a group is joined. PEG11 = NCCOCCOCCOCCOCCOCCOCCOCCOCCOCCOCCOCCC(=O)O; X2 = CCCCCCCCCCCCCCCCCC(=O)[C@H](CCC(N)=O)N*; X1 = CCCCCCCCCCCCCCCCC(=O)[C@H](CCC(N)=O)N*; β2hAla(2S) = C[C@@H](CN[*:1])C(=O)[*:2]; hLys = NCCCCC[C@H](N)C(=O)O; Nle = CCCC[C@H](N)C(=O)O; AEEA = NCCOCCOCC(=O)O

Columns and labels:
[1] = Stability in human blood assessed as parent compound at 5 uM remaining after 4 hrs; assay type: ADME, tissue-based; settings: read-out: Stabilty
[2] = Half life in Sprague-Dawley rat at 1 mg/kg, iv measured upto 72 hrs by LC-HRMS analysis; assay type: ADME, organism-based; settings: in vivo
[3] = target: T1, Relaxin receptor 1 (Homo sapiens) (UniProt Q9HBX9); test: Agonist activity at RXFP1 endogenously expressed in human OVCAR-5 cells assessed as increase in IBMX-induced cAMP accumulation pretreated with IBMX for 40 mins followed by compound addition and measured after 30 mins by HTRF assay relative to relaxin; assay type: functional, cell-based; settings: filed as agonist
T1 sequence (whole entry): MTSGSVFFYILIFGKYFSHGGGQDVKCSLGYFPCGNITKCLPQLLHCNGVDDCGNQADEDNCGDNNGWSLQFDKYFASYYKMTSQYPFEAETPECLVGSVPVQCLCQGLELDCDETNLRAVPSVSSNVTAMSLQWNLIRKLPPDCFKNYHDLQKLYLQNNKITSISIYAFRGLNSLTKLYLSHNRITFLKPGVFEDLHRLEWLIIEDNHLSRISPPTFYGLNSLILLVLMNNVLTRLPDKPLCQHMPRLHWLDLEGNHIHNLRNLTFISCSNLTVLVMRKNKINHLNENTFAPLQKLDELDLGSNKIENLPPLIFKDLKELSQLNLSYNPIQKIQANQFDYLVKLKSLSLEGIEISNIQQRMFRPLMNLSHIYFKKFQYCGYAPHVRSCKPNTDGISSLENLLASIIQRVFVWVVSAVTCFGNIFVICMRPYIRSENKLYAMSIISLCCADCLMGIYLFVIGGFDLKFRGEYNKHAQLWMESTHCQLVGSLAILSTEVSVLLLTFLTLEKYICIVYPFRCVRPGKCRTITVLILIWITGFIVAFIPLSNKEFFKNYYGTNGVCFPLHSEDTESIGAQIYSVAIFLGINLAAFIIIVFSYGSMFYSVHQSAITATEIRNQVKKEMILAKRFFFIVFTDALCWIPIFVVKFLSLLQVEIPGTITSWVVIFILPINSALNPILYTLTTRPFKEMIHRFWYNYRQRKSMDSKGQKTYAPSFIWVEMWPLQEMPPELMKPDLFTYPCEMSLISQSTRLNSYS

[4] = Stability in rat blood assessed as parent compound at 5 uM remaining after 4 hrs; assay type: ADME, tissue-based; settings: read-out: Stabilty
Relaxin receptor 1 [5] = target: T2, Relaxin receptor 1 (Homo sapiens, UniProt Q9HBX9); test: Agonist activity at RXFP1 endogenously expressed in human OVCAR-5 cells assessed as increase in IBMX-induced cAMP accumulation pretreated with IBMX for 40 mins followed by compound addition and measured after 30 mins by HTRF assay; assay type: functional, cell-based
T2 sequence (Q9HBX9 whole entry): T1 sequence (whole entry)

[6] = Bioavailability in Sprague-Dawley rat at 3 mg/kg, sc measured upto 72 hrs by LC-HRMS analysis; assay type: ADME, organism-based; settings: in vivo
[7] = target: T1, Relaxin receptor 1 (Homo sapiens); test: Agonist activity at RXFP1 endogenously expressed in human OVCAR-5 cells assessed as increase in IBMX-induced cAMP accumulation pretreated with IBMX for 40 mins followed by compound addition and measured after 30 mins in presence of 2 % HSA by HTRF assay relative to control; assay type: functional, cell-based; settings: filed as agonist
[8] = target: T1, Relaxin receptor 1 (Homo sapiens); test: Selectivity ratio of EC50 for agonist activity at RXFP1 endogenously expressed in human OVCAR-5 cells in presence of 2 % HSA to EC50 for agonist activity at RXFP1 endogenously expressed in human OVCAR-5 cells in absence of HSA; assay type: cell-based
Relaxin receptor 1 [9] = target: T2, Relaxin receptor 1; test: Agonist activity at RXFP1 endogenously expressed in human OVCAR-5 cells assessed as increase in IBMX-induced cAMP accumulation pretreated with IBMX for 40 mins followed by compound addition and measured after 30 mins in presence of 2 % HSA by HTRF assay; assay type: functional, cell-based
[10] = Positive chronotropic activity in pithed Sprague-Dawley rat assessed as increase in heart rate at 1000 mg/kg, iv administered as bolus dose measured after 60 mins post dose; assay type: ADME, organism-based; settings: in vivo, 1 h
[11] = Stability in rat plasma assessed as parent compound remaining level at 5 uM remaining after 4 hrs; assay type: ADME, cell-free; settings: read-out: Stabilty
[12] = Aqueous solubility of compound in phosphate buffer at pH 7.4 measured after 24 hrs by UPLC analysis; assay type: physicochemical
[13] = Positive chronotropic activity in pithed Sprague-Dawley rat assessed as increase in heart rate at 20 to 1000 mg/kg, iv administered as bolus dose measured after 60 mins post dose; assay type: ADME, organism-based; settings: in vivo, 1 h, dose 20-1000 mg/kg
[14] = Stability in human plasma assessed as parent compound remaining level at 5 uM remaining after 4 hrs; assay type: ADME, cell-free; settings: read-out: Stabilty

CCCCCCCCCCCCCCCCC(=O)[C@H](CCC(N)=O)NC(=O)[C@H](CCC(=O)O)NC(=O)[C@H](CCC(=O)O)NC(=O)[C@H](CCCCN)NC(=O)COCCOCCNC(=O)COCCOCCNC(=O)COCCOCCNC(=O)[C@H](CCCCCNC(C)=O)NC(=O)[C@H](CCCCN)NC(=O)[C@H](CCCCN)NC(=O)[C@H](CCCNC(=N)N)NC(=O)[C@@H](C)CNC(=O)[C@H](CO)NC(=O)[C@H](Cc1c[nH]c2ccccc12)NC(=O)[C@@H](NC(=O)[C@H](CO)NC(=O)[C@H](CCCCCNC(C)=O)NC(=O)[C@H](CCCCN)NC(=O)[C@H](CCCC)NC(=O)[C@H](CCSC)NC(=O)CNC(=O)[C@H](CCC(=O)O)NC(=O)[C@@H](C)CNC(=O)[C@@H](C)CNC(=O)[C@@H](NC(=O)[C@H](CCCCCNC(C)=O)NC(=O)[C@H](CCCCN)NC(=O)[C@H](C)NC(=O)[C@H](CCCNC(=N)N)NC(=O)[C@@H](NC(=O)[C@H](CCCCN)NC(=O)[C@H](CCC(=O)O)NC(=O)[C@H](CCCNC(=N)N)NC(=O)[C@H](CCC(=O)O)NC(=O)CNC(=O)[C@H](CCC(=O)O)NC(=O)[C@H](CC(C)C)NC(C)=O)C(C)C)[C@@H](C)CC)[C@@H](C)O (Ac-LEGEREKVRAK[hLys](Ac)I[β2hAla(2S)][β2hAla(2S)]EGM[Nle]K[hLys](Ac)STWS[β2hAla(2S)]RKK[hLys](Ac)[AEEA][AEEA][AEEA]KEE-X1)
remaining at 4 h, 5 µM [1]: 87% | half-life [2]: 5.7 h | Emax [3]: 80% | remaining at 4 h, 5 µM [4]: 79% | EC50 (Relaxin receptor 1 [5]): 1 nM | bioavailability [6]: 47% | Emax [7]: 96% | Ratio EC50 [8]: 87 | EC50 (Relaxin receptor 1 [9]): 87 nM

CCCCCCCCCCCCCCCCCC(=O)[C@H](CCC(N)=O)NC(=O)[C@H](CCC(=O)O)NC(=O)[C@H](CCC(=O)O)NC(=O)[C@H](CCCCN)NC(=O)COCCOCCNC(=O)COCCOCCNC(=O)COCCOCCNC(=O)[C@H](CCCCCNC(C)=O)NC(=O)[C@H](CCCCN)NC(=O)[C@H](CCCCN)NC(=O)[C@H](CCCNC(=N)N)NC(=O)[C@@H](C)CNC(=O)[C@H](CO)NC(=O)[C@H](Cc1c[nH]c2ccccc12)NC(=O)[C@@H](NC(=O)[C@H](CO)NC(=O)[C@H](CCCCCNC(C)=O)NC(=O)[C@H](CCCCN)NC(=O)[C@H](CCCC)NC(=O)[C@H](CCSC)NC(=O)CNC(=O)[C@H](CCC(=O)O)NC(=O)[C@@H](C)CNC(=O)[C@@H](C)CNC(=O)[C@@H](NC(=O)[C@H](CCCCCNC(C)=O)NC(=O)[C@H](CCCCN)NC(=O)[C@H](C)NC(=O)[C@H](CCCNC(=N)N)NC(=O)[C@@H](NC(=O)[C@H](CCCCN)NC(=O)[C@H](CCC(=O)O)NC(=O)[C@H](CCCNC(=N)N)NC(=O)[C@H](CCC(=O)O)NC(=O)CNC(=O)[C@H](CCC(=O)O)NC(=O)[C@H](CC(C)C)NC(C)=O)C(C)C)[C@@H](C)CC)[C@@H](C)O (Ac-LEGEREKVRAK[hLys](Ac)I[β2hAla(2S)][β2hAla(2S)]EGM[Nle]K[hLys](Ac)STWS[β2hAla(2S)]RKK[hLys](Ac)[AEEA][AEEA][AEEA]KEE-X2)
half-life [2]: 3.9 h | Emax [3]: 89% | Emin [10]: 26% | remaining at 4 h, 5 µM [11]: 114% | solubility at 24 h [12]: 11.4 mg/mL (≈ 2330 µM) | EC50 (Relaxin receptor 1 [5]): 0.2 nM | Emax [7]: 89% | Ratio EC50 [8]: 92 | EC50 (Relaxin receptor 1 [9]): 18.4 nM | Activity [13]: Dose-dependent effect | remaining at 4 h, 5 µM [14]: 111%

CCCCCCCCCCCCCCCCC(=O)[C@H](CCC(N)=O)NC(=O)[C@H](CCC(=O)O)NC(=O)[C@H](CCC(=O)O)NC(=O)[C@H](CCCCN)NC(=O)[C@H](CCCCN)NC(=O)[C@H](CCCNC(=N)N)NC(=O)[C@@H](C)CNC(=O)[C@H](CO)NC(=O)[C@H](Cc1c[nH]c2ccccc12)NC(=O)[C@@H](NC(=O)[C@H](CO)NC(=O)[C@H](CCSC)NC(=O)CNC(=O)[C@H](CCC(=O)O)NC(=O)[C@@H](C)CNC(=O)[C@@H](C)CNC(=O)[C@@H](NC(=O)[C@H](CCC(N)=O)NC(=O)[C@H](C)NC(=O)[C@H](CCCNC(=N)N)NC(=O)[C@@H](NC(=O)[C@H](CCCCN)NC(=O)[C@H](CCC(=O)O)NC(=O)[C@H](CCCNC(=N)N)NC(=O)[C@H](CCC(=O)O)NC(=O)CNC(=O)[C@H](CCC(=O)O)NC(=O)[C@H](CC(C)C)NC(C)=O)C(C)C)[C@@H](C)CC)[C@@H](C)O (Ac-LEGEREKVRAQI[β2hAla(2S)][β2hAla(2S)]EGMSTWS[β2hAla(2S)]RKKEE-X1)
remaining at 4 h, 5 µM [1]: 91% | half-life [2]: 4.3 h | Emax [3]: 97% | remaining at 4 h, 5 µM [4]: 93% | EC50 (Relaxin receptor 1 [5]): 17.6 nM | Ratio EC50 [8]: > 170 | EC50 (Relaxin receptor 1 [9]): > 3000 nM

CCCCCCCCCCCCCCCCCC(=O)[C@H](CCC(N)=O)NC(=O)[C@H](CCC(=O)O)NC(=O)[C@H](CCC(=O)O)NC(=O)[C@H](CCCCN)NC(=O)CCOCCOCCOCCOCCOCCOCCOCCOCCOCCOCCOCCNC(=O)[C@H](CCCCN)NC(=O)[C@H](CCCNC(=N)N)NC(=O)[C@@H](C)CNC(=O)[C@H](CO)NC(=O)[C@H](Cc1c[nH]c2ccccc12)NC(=O)[C@@H](NC(=O)[C@H](CO)NC(=O)[C@H](CCCC)NC(=O)[C@H](CCSC)NC(=O)CNC(=O)[C@H](CCC(=O)O)NC(=O)[C@@H](C)CNC(=O)[C@@H](C)CNC(=O)[C@@H](NC(=O)[C@H](CCC(N)=O)NC(=O)[C@H](C)NC(=O)[C@H](CCCNC(=N)N)NC(=O)[C@@H](NC(=O)[C@H](CCCCN)NC(=O)[C@H](CCC(=O)O)NC(=O)[C@H](CCCNC(=N)N)NC(=O)[C@H](CCC(=O)O)NC(=O)CNC(=O)[C@H](CCC(=O)O)NC(=O)[C@H](CC(C)C)NC(C)=O)C(C)C)[C@@H](C)CC)[C@@H](C)O (Ac-LEGEREKVRAQI[β2hAla(2S)][β2hAla(2S)]EGM[Nle]STWS[β2hAla(2S)]RK[PEG11]KEE-X2)
half-life [2]: 4.8 h | Emax [3]: 79% | EC50 (Relaxin receptor 1 [5]): 1 nM | bioavailability [6]: 100% | Emax [7]: 80% | Ratio EC50 [8]: 31 | EC50 (Relaxin receptor 1 [9]): 31 nM
